Experimental findings from a melting point compilation (Tetko et al.; mined from patent text by program, amines drawn as free bases though some values may be those of a salt) are described below.

Some results are limits rather than exact numbers.

`O=C(O)CCCCC1Cc2ccc(F)cc2C1=O` (stereo unspecified): the melting point (commonly the temperature of the solid-liquid transition) was 122 to 123 °C.

On to `CNC(=O)c1cc(N2CCCC2)cc(C)c1C(N)=O`, for which the melting point is 160 °C.

`O=C1N(c2c(Cl)cccc2Cl)Cc2cnc(NC3CCCCC3)nc2N1c1ccccc1`: the melting point was 258 to 259 °C.

`CC1CCC2C3CCC4CC(O)CCC4(C)C3C(N(C)C)CC12C` (stereo unspecified) returned a melting point of 150 to 156 °C.

With `CN(C)C(N)=Nc1cc(C(F)(F)F)ccc1N1CCOCC1`, the melting point fell in the range of 132 to 135 °C.

As for `CN(C(N)=O)c1ccccc1S`, the melting point is 73 to 75 °C.

With `CCOc1nc(-c2ccc(OC)c(OC)c2)cc(=Nc2c(C)cc(C)cc2C)n1C`, the melting point was 116 to 119 °C.

Compound `O=C(Oc1ccccc1)C1c2ccccc2Oc2ccc(O)cc21` (stereo unspecified) gave a melting point of 182 to 184 °C.

Regarding `CCOCC(=Nc1ccc(Cl)cc1C(F)(F)F)n1ccnc1`, the melting point fell in the range of 49 to 52 °C.

Compound `COCOc1ccc(C=CC(=O)c2ccc(OCc3ccccc3)cc2O)c(OCc2ccccc2)c1` displayed a melting point of 147 to 148 °C.

For `Nc1ncnc2c1ncn2COCCN1C(=O)c2ccccc2C1=O`, the melting point fell in the range of 256 to 258 °C.

For the compound `CN1CCN(c2cccc3ccc(OS(=O)(=O)C(F)(F)F)cc23)CC1`, the melting point is 70 to 71 °C.

The compound `CC(=O)NCc1ccc(C(=O)CBr)s1` showed a melting point of 129 to 131 °C.

`CC(C(=O)OCC(c1cccc(C(F)(F)F)c1)N1CCNCC1)c1ccc2c(c1)CC(C(C)C)C2` (stereo unspecified) yielded a melting point of 56 to 58 °C.

`O=C(O)c1ccsc1-c1sccc1C(=O)O`: the melting point was 194 to 198 °C.

In turn, `COC(=O)CCC(=O)c1ccc(-c2ccc(SC)cc2)cc1` had a melting point of 137 to 140 °C.

`O=C1c2cc([N+](=O)[O-])ccc2CC2CCCCCN12` (stereo unspecified) gave a melting point of 118 to 119 °C.

Take `OC1(c2ccccn2)CCC2CCCC21` (stereo unspecified): the melting point fell in the range of 66 to 66.5 °C.

For the compound `Cc1ccc(S(=O)(=O)N2CC(O)CC2C(=O)O)cc1` (stereo unspecified), the melting point is 146 to 147 °C.

In turn, `NC(=O)Oc1ccccc1-c1nc2ccc(OCc3c(F)cccc3Cl)cc2s1` gave a melting point of 227 °C.

`CCc1n[nH]c2cc(-c3nn(C(C)c4oc5ccccc5c(=O)c4-c4cccc(F)c4)c4ncnc(N)c34)ccc12` (stereo unspecified) had a melting point of 270 to 273 °C.

The compound `Cc1cc(Cl)ccc1NC(=O)NCc1ccc2c(c1)CN(C1CCC(=O)NC1=O)C2=O` (stereo unspecified) registered a melting point of 256 to 258 °C.

`CC(C)(Oc1ccc(Cl)cc1)C(=O)Cn1cncn1` returned a melting point of 101 to 103 °C.

`Nc1nc(N)c(-c2ccc(Cl)cc2Cl)c(COCc2ccccc2)n1` yielded a melting point of 171 to 172 °C.

Regarding `COc1ccc(C(=O)c2c[nH]c(Cc3ccccc3)n2)cc1`, the melting point is 108 to 110 °C.

Turning to `C=CC(Cc1ccccc1)(C(=O)O)N(Cc1ccccc1)C(=O)OCc1ccccc1` (stereo unspecified), the melting point was in the range of 68 to 70 °C.

In turn, `NC1CCN(c2ccc([N+](=O)[O-])cn2)CC1` registered a melting point of 115 to 117 °C.

As to `COc1cccc(OC)c1C(=O)NCCSCc1cccc(Cl)c1`, the melting point is 90 to 91 °C.

As to `CCCCCCNC(=O)c1cccc2c1C1(COc3cc4c(cc31)OCCO4)C(=O)N2C` (stereo unspecified), the melting point lay within 172 to 173 °C.

Compound `CCC(Oc1cccc(C(F)(F)F)c1)C(=O)NCc1ccccc1Cl` (stereo unspecified) showed a melting point of 66 to 68 °C.

Consider `CC(C(=O)NCC1CCC1)(c1ccccc1)c1ccccc1`, for which the melting point was 79 °C.

Compound `COc1cccc(S(=O)(=O)Nc2nccnc2OC)c1Cl` came in with a melting point of 151 to 152 °C.

Take `CC(C)CCCC(C)CCOc1ccc2c(c1)[nH]c1ccccc12` (stereo unspecified): the melting point was found to be 188 °C.

`CN(CCCNc1ccc(C#N)cc1)C1C2CCC1CN(Cc1ccccc1)C2` (stereo unspecified) had a melting point of 91 to 93 °C.

Consider `CC(=O)Nc1c(I)c(NC(C)=O)c(I)c(C(=O)OCC(O)CO)c1I` (stereo unspecified), for which the melting point amounted to 207 °C.

Turning to `O=C1N(Cc2ccc(F)cc2Cl)c2ccccc2C12COc1cc3c(cc12)OCO3` (stereo unspecified), the melting point was in the range of 174 to 175 °C.

`O=C1CC2CCSc3sc(CCO)cc3C2=NN1` (stereo unspecified): the melting point lay in the range of 165 to 167 °C.

Compound `C=C(CN(Cc1ccccc1)Cc1ccccc1)C(=O)OC(C)(C)C` gave a melting point of 62 to 63 °C.

On to `Nc1c(Nc2cccc(-c3ccncc3)n2)c(=O)c1=O`, for which the melting point is more than 340 °C.

On to `CCOC(=O)CCCCCNS(=O)(=O)c1ccc(Cl)cc1`, for which the melting point is 102 to 105 °C.

On to `CC(C)C1=NCCSC1=NO`, for which the melting point lay within 167 to 169 °C.

In turn, `CC(=O)N(C)c1cc([N+](=O)[O-])cc([N+](=O)[O-])c1` registered a melting point of 134 to 136 °C.

In the case of `CCOC(=O)CCc1cc(CCC(=O)O)cc(Oc2cccnc2)c1`, the melting point lay in the range of 85 to 87 °C.

For `CCC1(CO)CCCN2CCc3c([nH]c4ccccc34)C21` (stereo unspecified), the melting point lay in the range of 230 to 233 °C.

Take `CC1CC2(C)C(CCC3C4CCC(C5(C)OCCO5)C4(C)CC(=O)C32)CC1=O` (stereo unspecified): the melting point lay in the range of 168 to 169 °C.

In the case of `N#Cc1ccnc(CO)c1`, the melting point lay in the range of 92 to 94 °C.

The compound `CC1(C)Cc2c(N)c(Cl)cc(C(=O)NC3CCN(CCNc4nc(O)c5cc(Cl)ccc5n4)CC3)c2O1` registered a melting point of 207 °C.

With `Nc1cc(C(=O)c2cc3ccccc3o2)ccc1Cl`, the melting point turned out to be 137 °C.

Take `O=C(O)Cc1nc(-c2ccc(F)cc2)oc1-c1ccoc1`: the melting point fell in the range of 208 to 209 °C.

Take `O=C(c1ccccc1)c1ccc2nccnc2c1`: the melting point came out at 120 °C.

The compound `CC(C)C[C@H](NC(=O)OCC1CCCCCC1)C(=O)N[C@@H](Cc1ccccc1)C(=O)CSCc1ccco1` gave a melting point of 77 to 79 °C.

In turn, `CON(c1ccc([N+](=O)[O-])cc1[N+](=O)[O-])S(=O)(=O)c1ccccc1Cl` gave a melting point of 112 to 114 °C.

For the compound `CSc1nccc(-c2cccc(C(F)(F)F)c2)n1`, the melting point is 89 to 90 °C.

`O=Cc1cc2cc(F)c(F)cc2nc1Cl` came in with a melting point of 226 to 229 °C.

For `Nc1cc2c(cc1[N+](=O)[O-])OCO2`, the melting point lay within 199 to 201 °C.

`CCC1CC(=O)N(Cc2ccc(C(=O)NC3CCCC3)cc2)N=C1c1ccc(OC)c(OC2CCCC2)c1` (stereo unspecified) registered a melting point of 73 °C.

The compound `O=C(Sc1ccccn1)c1ccccc1` showed a melting point of 48 to 50 °C.

With `CC(=O)Nc1c([N+](=O)[O-])cnn1-c1c(F)c(F)c(C(F)(F)F)c(F)c1F`, the melting point was in the range of 136 to 138 °C.

Turning to `COc1cc(OC)c2c(C)c(CCN3CCN(c4ccccc4F)CC3)c(=O)oc2c1`, the melting point fell in the range of 152 to 153 °C.

Turning to `CN1CC(CCC#N)Oc2ncccc2C1=S` (stereo unspecified), the melting point is 155 to 156 °C.

On to `Oc1ccc(OC[C@@H](O)CNCCc2ccc(-n3c(-c4ccc(C5CCCCC5)cc4)nc4cccnc43)cc2)cc1`, for which the melting point fell in the range of 100 to 102 °C.

For the compound `CS(=O)(=O)c1ccc(C(Cc2ccccc2)C(=O)Nc2nc3ccccc3o2)cc1` (stereo unspecified), the melting point lay in the range of 118 to 119 °C.

In turn, `Cc1nc(N(C)C)ncc1OCc1ccccc1` had a melting point of 73 to 74 °C.

Regarding `NCC1(Cc2noc(=O)[nH]2)CCCCC1`, the melting point is 109 to 111 °C.

Turning to `CCN1c2ncc(C#Cc3ccccc3)cc2C(=O)N(C)c2cccnc21`, the melting point was 228 to 229 °C.

The compound `CC(C)CC(=O)N[C@H]1CC[C@H](CCN2CCN(c3nccc4c3CCO4)CC2)CC1` had a melting point of 202 °C.
